From patent US5300672A (priority 1992, dated 1994)
Where two headings read alike, the source gives them in different places.

Tests used:
Phytophthora infestans = experiment: whole plant or invertebrate; type: in vivo
Piricularia oryzae = experiment: whole plant or invertebrate; type: in vivo; settings: for pest or weed control at 200 ppm: read-out: % Control RB, application rate 200 ppm; for pest or weed control at 100 ppm: read-out: % Control RB, application rate 100 ppm
[1] = tested on: Puccinia recondita (f. sp. tritici Races PKB and PLD); experiment: whole plant or invertebrate; type: in vivo; settings: for pest or weed control at 200 ppm / pest or weed control at 100 ppm: Puccinia recondita, 240 h, read-out: % Control WLR
[2] = tested on: Pseudoperonospora cubensis; experiment: whole plant or invertebrate; type: in vivo; settings: Pseudoperonospora cubensis, in Cucumis sativus, 168 h; read-out: % Control CDM
[3] = tested on: Erysiphe graminis (f. sp. tritici); experiment: whole plant or invertebrate; type: in vivo
Pseudomonas fluorescens = experiment: Alternate Minimum Inhibitory Concentrations Test (Table 4), Ps.fl; type: cell-based; settings: Table 4 alternate test; for MIC: Pseudomonas fluorescens, read-out: MIC Ps.fl; for MIC Ps.fl (I = inactive): class symbol
Method: The compounds of Examples 1-8, 12-26, 28-33, 36-37, 39-42, 44-109, 111-114, and 116-120 were subjected also to the following alternate biocidal activity test procedures with the results as indicated in Table 4.
The MIC test measures the viability of Pseudomonas fluorescens inoculum in TSB when exposed for 72 hours to varying concentrations of test compound.
A 125 μl aliquot of 10,000 ppm test compound in acetone was added to 4.88 ml of TSB to provide a 250 ppm solution. From this solution, 100 μL was transferred to the first row of two microtiter plate columns. Both replicates and five additional compounds were all serially diluted 1:1 to a final concentration of 0.8 ppm in TSB.
Inoculation was accomplished by diluting a 24 hr Ps fl culture, four mls per 36 mls of phosphate buffer solution. A Dynatech autoinoculator was used to transfer 1.5 μl of this cell suspension to the microtiter plates. The plates were incubated at 30° C. for 3 days before the lowest concentration at which no growth occurs was recorded in the database.

[4] = tested on: Pellicularia filamentosa (f. sp. sasiki); experiment: whole plant or invertebrate; type: in vivo; settings: for pest or weed control at 200 ppm / pest or weed control at 100 ppm: 120 h, read-out: % Control RSB
[5] = Phytophthora infestans, in Solanum lycopersicum, 96 h, read-out: % Control TLB, application rate 200 ppm
[6] = Blumeria graminis, read-out: % Control WPM
[7] = 250 ppm to 0.8 ppm in TSB, 72 hours, 30° C.
[8] = Phytophthora infestans, in Solanum lycopersicum, 96 h, read-out: % Control TLB

Row | Compound | pest or weed control at 200 ppm (Phytophthora infestans; [5]) [%] | pest or weed control at 200 ppm (Piricularia oryzae; Pyricularia oryzae) [%] | pest or weed control at 200 ppm [1] [%] | pest or weed control at 200 ppm [2] [%] | pest or weed control at 200 ppm [3, 6] [%] | MIC (Pseudomonas fluorescens; [7]) [µg/mL] | pest or weed control at 200 ppm (Phytophthora infestans; [8]) [%] | also measured
1 | CCCCCCCCNC(=O)/C=C\SC(=O)c1ccc([N+](=O)[O-])cc1C [Compound 99, N-octyl-cis-3-[(2-methyl-4-nitrobenzoyl)thio]acrylamide] | 0 | 75 | 0 | 50 | 50 | > 250 |  | 
2 | CCCCCCCCNC(=O)/C=C\SC(=O)c1cc([N+](=O)[O-])ccc1[N+](=O)[O-] [Compound 107, N-octyl-cis-3-[(2,5-dinitrobenzoyl)thio]acrylamide] | 0 | 0 | 0 | 0 | 50 | > 250 |  | 
3 | CCCCCCCCNC(=O)/C=C\SC(=O)CCCOc1ccccc1 [Compound 120, N-octyl-cis-3-[(4-phenoxybutanoyl)thio]acrylamide] |  | 0 | 0 | 90 | 0 |  |  | pest or weed control at 50 ppm (Phytophthora infestans; [8]): 80%; MIC Ps.fl (I = inactive) (Pseudomonas fluorescens): I
4 | CCCCCCCCNC(=O)/C=C\SC(=O)CCCCC(=O)OC [Compound 118, N-octyl-cis-3-[(5-methoxycarbonylpentanoyl)thio]acrylamide] |  | 75 | 0 | 100 | 0 |  | 90 | MIC Ps.fl (I = inactive) (Pseudomonas fluorescens): I
5 | CCCCCCCCNC(=O)/C=C\SC(=O)CCCCCCCC(=O)OC [Compound 117, N-octyl-cis-3-[(8-methoxycarbonyloctanoyl)thio]acrylamide] | 0 | 0 | 0 |  | 0 |  |  | pest or weed control at 50 ppm [2]: 95%; MIC Ps.fl (I = inactive) (Pseudomonas fluorescens): I
6 | CCCCCCCCNC(=O)/C=C\SC(=O)c1cnccc1Cl [Compound 108, N-octyl-cis-3-[(4-chloro-3-pyridine)carbonylthio]acrylamide] |  | 0 | 0 | 90 | 0 | > 250 | 90 | 
7 | CCCCCCCCNC(=O)/C=C\SC(=O)c1ccc(Cl)c([N+](=O)[O-])c1 [Compound 104, N-octyl-cis-3-[(3-nitro-4-chlorobenzoyl)thio]acrylamide] | 0 | 50 | 0 | 0 | 0 | > 250 |  | 
8 | CCCCCCCCNC(=O)/C=C\SC(=O)CCCCCCCCC(=O)OC [Compound 119, N-octyl-cis-3-[(9-methoxycarbonylnonanoyl)thio]acrylamide] |  | 50 | 0 | 70 | 0 |  | 80 | MIC Ps.fl (I = inactive) (Pseudomonas fluorescens): I
9 | CCCCCCCCNC(=O)/C=C\SC(=O)c1ccc(Cl)c(Cl)c1 [Compound 103, N-octyl-cis-3-[(3,4-dichlorobenzoyl)thio]acrylamide] | 0 | 50 | 0 | 50 | 85 | > 250 |  | 
10 | CCCCCCCCNC(=O)/C=C\SC(=O)c1cccc(Cl)c1Cl [Compound 102, N-octyl-cis-3-[(2,3-dichlorobenzoyl)thio]acrylamide] | 0 | 50 | 0 | 50 | 0 | > 250 |  | 
11 | CCCCCCCCNC(=O)/C=C\SC(=O)CCCCCCC(=O)OC [Compound 110, N-octyl-cis-3-[(7-methoxycarbonylheptanoyl)thio]acrylamide] |  | 75 | 0 | 70 | 0 |  | 90 | 
12 | CCCCCCCCNC(=O)/C=C\SC(=O)/C=C/C=C/c1ccccc1 [Compound 109, N-octyl-cis-3-[(trans,trans-5-phenyl-2,4-pentadienoyl)thio]acrylamide] | 0 | 0 | 0 | 50 | 0 | > 250 |  | 
13 | CCCCCCCCNC(=O)/C=C\SC(=O)COCC [Compound 60, N-octyl-cis-3-(ethoxyacetylthio)acrylamide] | 95 | 50 | 25 |  | 0 | > 250 |  | pest or weed control at 200 ppm [4]: 0%
14 | CCCCCCCCNC(=O)/C=C\SC(=O)CCl [Compound 31, N-octyl-cis-3-(chloroacetylthio)acrylamide] |  |  |  |  |  | > 250 |  | pest or weed control at 100 ppm (Phytophthora infestans; [8]): 80%; pest or weed control at 100 ppm (Piricularia oryzae; Pyricularia oryzae): 0%; pest or weed control at 100 ppm [1]: 0%; pest or weed control at 100 ppm [4]: 0%; pest or weed control at 100 ppm [3, 6]: 0%
15 | CCCCCCCCNC(=O)/C=C\SC(=O)c1ccccc1 [Compound 1, N-octyl-cis-3-(benzoylthio)acrylamide] |  |  |  |  |  | > 250 |  | pest or weed control at 100 ppm (Phytophthora infestans; Phytophthora infestans, in Solanum lycopersicum, 96 h, read-out: % Control TLB, application rate 100 ppm): 100%; pest or weed control at 100 ppm (Piricularia oryzae; Pyricularia oryzae): 0%; pest or weed control at 100 ppm [1]: 0%; pest or weed control at 100 ppm [4]: 0%; pest or weed control at 100 ppm [3, 6]: 0%
16 | CCCCCCCCNC(=O)/C=C\SC(=O)/C=C/c1cccs1 [Compound 66, N-octyl-cis-3-[(trans-3-(2-thiophene)propenoyl)thio]acrylamide] |  |  | 0 |  | 0 | > 250 | 90 | pest or weed control at 50 ppm (Piricularia oryzae; Pyricularia oryzae, read-out: % Control RB, application rate 50 ppm): 50%; pest or weed control at 200 ppm [4]: 0%
17 | CCCCCCCCNC(=O)/C=C\SC(=O)c1cnc2ccccc2c1 [Compound 72, N-octyl-cis-3-[(3-quinoline)carbonylthio]acrylamide] |  | 0 | 0 |  | 0 | > 250 | 90 | pest or weed control at 200 ppm [4]: 50%
18 | CCCCCCCCNC(=O)C=CSC(CO)COc1ccc(OC)cc1 (stereo not drawn) [Compound 39, N-octyl-cis-3-[(1-hydroxy-3-(4-methoxyphenoxy)-2-propane)thio]acrylamide] |  |  |  |  |  |  |  | % Control TLB (Phytophthora infestans; application rate 100 ppm): 0 % Control; % Control RB (Piricularia oryzae; in vivo): 80 % Control; % Control WLR ([1]; in vivo): 0 % Control; % Control RSB ([4]; in vivo): 0 % Control; % Control WPM ([3]; in vivo): 0 % Control; MIC Ps.fl (Pseudomonas fluorescens; [7]): > 250 Ppm
19 | C=Cc1ccc(C(=O)S/C=C\C(=O)NCCCCCCCC)cc1 [Compound 64, N-octyl-cis-3-[(4-ethenylbenzoyl)thio]acrylamide] |  | 0 | 0 |  | 0 | > 250 | 80 | pest or weed control at 200 ppm [4]: 0%
20 | C=CC(=O)S/C=C\C(=O)NCCCCCCCC [Compound 71, N-octyl-cis-3-(propenoylthio)acrylamide] | 100 | 0 | 0 |  |  | > 250 |  | pest or weed control at 200 ppm [4]: 0%; pest or weed control at 12 ppm [3, 6]: 50%
